Reference: US8653305B2, “Compound having S1P receptor binding potency and use thereof” (Ono Pharmaceutical Co., Ltd., priority 2004, dated 2014)

What was measured:
[1] = biological target: T1, Human EDG-1 (Homo sapiens, UniProt P21453); experiment: Agonistic activity against EDG by monitoring changes in intracellular calcium ion [Ca^2+]i concentration; type: cell-based; details: Human EDG-1 overexpressing CHO cells; Fura2-AM; control 100 nM S1P; read-out: EC50 of agonistic activity against EDG-1 (increase ratio of intracellular calcium ion concentration)
T1 construct: expressed in transfected cells; host or cells: CHO cells
Method: Evaluation of an Agonistic Activity Against EDG of the Compound of the Present Invention by Monitoring Changes in Intracellular Calcium Ion [Ca^2+]i Concentration
Human EDG-1, EDG-3, EDG-5 or EDG-8 gene overexpressing CHO cells were cultured in Ham's F12 medium (manufactured by GIBCO BRL) containing 10% FBS (fetal bovine serum), penicillin/streptomycin and blasticidin (5 μg/ml). The cultured cells were incubated in a 5 μM Fura2-AM solution (Ham's F12 medium containing 10% of FBS, 20 mM HEPES buffer (pH7.4), and 2.5 mM probenecid) at 37° C. for 60 minutes. After washing once with Hanks solution containing 20 mM HEPES buffer (pH7.4), and 2.5 mM probenecid, the plate was soaked in the same solution until assay. Then, the plate was set on a fluorescent drug screening system (FDSS 6000; Hamamatsu Photonics) and the intracellular calcium ion concentration was measured without stimulation for 30 seconds. A test compound (final concentration: 1 nM to 10 μM, dimethylsulfoxide (DMSO) solution) was added and S1P (final concentration: 100 nM) was added 5 minutes thereafter. Then, the increase in the intracellular calcium ion concentration was measured before and after the addition of S1P at intervals of 3 seconds (excitation wavelength: 340 nm and 380 nm, fluorescence wavelength: 500 nm). […]

[2] = biological target: T2, EDG-6 (Homo sapiens, UniProt O95977); experiment: Inhibitory activity on binding of [^3H]-PhS1P to EDG-6; details: cell membrane fraction of EDG-6-overexpressing CHO cell; 10 nmol/L [^3H]-PhS1P solution; read-out: IC50 of inhibition of binding of [^3H]-PhS1P to EDG-6
T2 construct: expressed in transfected cells; host or cells: Chinese Hamster Ovary (CHO) cells, membrane fraction
T2 sequence (O95977 1-384): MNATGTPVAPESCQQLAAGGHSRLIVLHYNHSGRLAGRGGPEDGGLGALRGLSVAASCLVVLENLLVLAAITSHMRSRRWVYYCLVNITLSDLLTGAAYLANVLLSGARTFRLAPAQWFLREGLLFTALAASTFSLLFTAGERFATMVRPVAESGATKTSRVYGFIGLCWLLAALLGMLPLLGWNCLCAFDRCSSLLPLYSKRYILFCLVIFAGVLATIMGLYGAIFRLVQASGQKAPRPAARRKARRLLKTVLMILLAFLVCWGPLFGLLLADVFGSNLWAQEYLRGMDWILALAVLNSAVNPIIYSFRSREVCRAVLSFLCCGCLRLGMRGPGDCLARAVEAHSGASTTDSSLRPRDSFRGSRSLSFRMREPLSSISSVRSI
Method: Measurement of Inhibitory Activity of the Compound of the Present Invention on Binding of [^3H]-PhS1P to EDG-6
By using cell membrane fraction of an EDG-6-overexpressing Chinese Hamster Ovary (CHO) cell and 1 mg protein/mL of the membrane fraction, reaction was carried out in a 96-well plate. Into each well, 80 μL of a vehicle (DMSO) solution diluted with 2× binding buffer (100 mmol/L Tris pH 7.5, 200 mM NaCl, 30 mM NaF, 1% BSA) or a ligand solution having a twice higher concentration and 40 μL of 10 nmol/L [^3H]-PhS1P (5,5,6,6,-[…] phytosphingosine 1-phosphate: This was prepared in the following manner. A compound (anti-7-tert-butyl (4S)-4-[(1S,2R)-1-(benzyloxy)-2-hydroxyhexadec-3-yn-1-yl]-2,2-dimethyl-1,3-oxazolizine-3-carboxylate) prepared in accordance with a method reported in a document (Tetrahedron Lett., 38(34), 6027-6030 (1997)) was reacted with benzyl bromide in tetrahydrofuran in the presence of potassium hexamethyldisilylamide to thereby protect the hydroxy group of the compound. Then, it was treated in hydrogen chloride/methanol solution to remove an acetonide group. The compound thus obtained was reacted with N,N-diethyl-1,5-dihydro-2,4,3-benzodioxaphosphepin-3-amine in dichloromethane in the presence of tetrazole and then oxidized with m-chloroperbenzoic acid. Then, it was reacted in the presence of ASCA-2 catalyst (manufactured by NE Chemcat, 4.5% palladium-0.5% platinum catalyst carried on active carbon, see, Fine Chemical, Oct. 1, 2002, pages 5 to 14) in methanol under a tritium atmosphere. The obtained compound was treated with a 4 N hydrogen chloride/1,4-dioxane solution in dichloromethane to thereby obtain the desired compound) were added. Further, 40 μl of the membrane fraction solution was added and reacted at room temperature for 60 minutes. […] Then, 50 μl/well of Micro Scint 20 was added and the plate was covered with Top Seal-P. Then the radioactivity was measured with Top Count (Perkin Elmer).

T1 sequence (P21453 whole entry): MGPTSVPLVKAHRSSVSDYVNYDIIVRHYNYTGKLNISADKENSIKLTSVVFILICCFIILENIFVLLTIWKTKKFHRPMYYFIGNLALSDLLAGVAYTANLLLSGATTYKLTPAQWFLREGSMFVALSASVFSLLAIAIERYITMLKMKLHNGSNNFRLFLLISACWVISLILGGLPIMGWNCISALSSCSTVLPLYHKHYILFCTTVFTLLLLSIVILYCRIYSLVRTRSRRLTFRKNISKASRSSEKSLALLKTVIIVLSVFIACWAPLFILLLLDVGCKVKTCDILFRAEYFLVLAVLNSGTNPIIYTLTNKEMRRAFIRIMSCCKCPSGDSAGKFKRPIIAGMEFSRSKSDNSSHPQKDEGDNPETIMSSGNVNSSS

Row | Structure (SMILES) | EC50 [1] [µM] | IC50 [2] [µM]
1 | c1ccc(CCCCOc2ccc3cc(CN4CCCCC4)ccc3c2)cc1 [Example 5, 1-{[6-(4-phenylbutoxy)-2-naphthyl]methyl}piperidine] | 7.8 | 
2 | O=C(NS(=O)(=O)c1ccccc1)C1CN(Cc2ccc3cc(OCCCc4ccccc4)ccc3c2)C1 [Example 6] | 0.25 | 
3 | CCNCC1=C(C)c2ccc(OCC(C)Cc3ccc(F)cc3)cc2CC1 (centres unmarked) [Example 27, N-({6-[3-(4-fluorophenyl)-2-methylpropoxy]-1-methyl-3,4-dihydro-2-naphthalenyl}methyl)ethanamine] |  | 0.026
4 | COc1cc(CC(C)C)ccc1COc1ccc2c(c1)CCC(CN1CC(CO)C1)=C2C [Example 37-1, [1-({6-[(4-isobutyl-2-methoxybenzyl)oxy]-1-methyl-3,4-dihydro-2-naphthalenyl}methyl)-3-azetidinyl]methanol] |  | 0.098
5 | COc1cc(CC(C)C)ccc1COc1ccc2c(c1)CCC(CN1CCN(c3ccccn3)CC1)=C2C [Example 66-24, 1-({6-[(4-isobutyl-2-methoxybenzyl)oxy]-1-methyl-3,4-dihydro-2-naphthalenyl}methyl)-4-(2-pyridinyl)piperazine] |  | 0.081
